Earlier results as cited in US20070042451A1, “Glycine decarboxylase complex as a herbicidal target” (BASF Aktiengesellschaft, priority 2003, published 2007).

System: glycine decarboxylase complex
Conditions: Navarre and Wolpert 1995

Substance: victorine
- in vitro inhibition of the GDC activity: inhibition of the GDC activity
